For 62 compounds, IC50 results are on record in patent publication US12384753B2, “17-beta-hydroxysteroid dehydrogenase type 13 inhibitors and methods of use thereof” (Enanta Pharmaceuticals, Inc., priority 2021, dated 2025).

Chain of Recombinant human HSD17B13 (Q7Z5P4 20-300): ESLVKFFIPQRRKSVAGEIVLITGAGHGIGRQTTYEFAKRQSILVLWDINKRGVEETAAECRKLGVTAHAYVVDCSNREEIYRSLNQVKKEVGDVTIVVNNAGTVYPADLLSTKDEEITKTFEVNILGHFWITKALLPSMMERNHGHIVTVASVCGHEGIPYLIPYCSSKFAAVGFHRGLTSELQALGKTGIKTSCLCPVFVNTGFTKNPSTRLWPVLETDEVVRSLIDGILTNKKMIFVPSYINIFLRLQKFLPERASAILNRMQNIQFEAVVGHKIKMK

In the assay the target is Recombinant human HSD17B13 (Homo sapiens (Human), UniProt Q7Z5P4). As to the kind of experiment: HSD17B13 rapid-fire mass spectrometry assay (RF/MS assay). The format is biochemical. As to conditions: inhibition of HSD17B13; LTB4 10 μM, NAD+ 0.5 mM, RT 3 h; IC50 ranges A-E. The source says:
HSD17B13 rapid-fire mass spectrometry assay (RF/MS assay). Recombinant human HSD17B13 was expressed and purified from sf9 cells at Charles River Labs (Saffron Walden, UK). Leukotriene B4 (Catalog #71160-24-2) and 12-oxoleukotriene B4 (Catalog #20140) were purchased from Cayman Chemicals (Ann Arbor, Michigan.). NAD+ (Catalog #N8285), BSA (Catalog #A7030), DMSO (Catalog #D2650), and Tween-20 (Catalog #11332465001) were purchased from Sigma (St. Louis, MO). Formic acid (Catalog #28905) was from ThermoFisher Scientific and 384 deep well PP microplates (Catalog #784261) were from Greiner Bio-One. In a typical IC50 assay performed in a 384w PP microplate, test compounds (0-100 μM) were incubated with HSD17B13 (80 nM), LTB4 (10 μM), and NAD^+ (0.5 mM) in 10 μL assay buffer (20 mM Tris (pH 7.5), BSA (0.005%), and Tween-20 (0.01%)) at RT for 3 h. The assays were quenched by adding 20 μL of 0.15% aqueous formic acid and the plates were frozen at −80° C. RF/MS analysis was performed at PureHoney Technologies (Billerica, MA) on a RapidFire RF300 system (Agilent Technologies, Inc.) coupled to an API 4000 triple quadrupole mass spectrometer (Sciex) equipped with Agilent RapidFire cartridge type A (C4). The mobile phase was 0.09% formic acid and 0.01% trifluoracetic acid in water (Buffer A) and 0.09% formic acid and 0.01% trifluoracetic acid in 80% aqueous acetonitrile (Buffer B). The RapidFire method conditions were the following: 250 ms aspirate, 3000 ms load/desalt, 4000 ms elute, and 500 ms re-equilibrate. RF-MS/MS was performed in negative polarity (−4500 V), the source temperature was 650° C., and gas 1 and gas 2 settings for nitrogen were set to 50. The curtain gas and collision gas were also nitrogen and were set to 20 and 12, respectively. Leukotriene B4 (335.3) and 12-oxoLeukotriene B4 (333.3) SRM transitions were optimized with Discovery Quant software and extracted ion counts for these analytes were determined.
Data Analysis. HSD17B13 enzyme activity was measured as percent conversion of extracted ion counts and normalized to high and low controls to determine percent residual activity at various concentrations of test compounds. Data were fitted to normalized activity (variable slope) versus concentration fit in GraphPad Prism 7 to determine IC50. All experiments were run in duplicates.
By using above method, the inhibition of HSD17B13 was evaluated for the compounds of Formula (I). IC50 ranges are as follows: A=IC50<0.100 μM; B=0.100 μM<IC50<0.500 μM; C=0.500 μM<IC50<1 μM; D=1 μM<IC50<100 μM; E=IC50>100 μM
By IC50 is commonly meant the point on the concentration scale where inhibition reaches its midpoint. Consider `COc1nc(C(=O)O)cnc1NS(=O)(=O)c1cnc(-c2ccc(F)cc2)s1` [Example 84], for which the IC50 was in the range of 1000 to 100000 nM. On to `COc1cc(C(=O)O)cnc1NS(=O)(=O)c1cnc(-c2ccc(F)cc2)s1` [Example 85], for which the IC50 lay in the range of 100 to 500 nM. As to `O=C(O)c1cc(NS(=O)(=O)c2cnc(-c3ccc(F)cc3)s2)co1` [Example 86], the IC50 lay in the range of 100 to 500 nM. For `O=C(O)c1ccc(NS(=O)(=O)c2cnc(-c3ccc(F)cc3)s2)c2ccccc12` [Example 87], the IC50 is 1000 to 100000 nM. On to `COc1cc(C(=O)O)ccc1NS(=O)(=O)c1csc(-c2ccc(F)c3ccccc23)n1` [Example 88], for which the IC50 was 1000 to 100000 nM.

For `COc1cc(C(=O)O)ccc1NS(=O)(=O)c1csc(-c2ccc(F)c3ccoc23)n1` [Example 89], the IC50 was in the range of 1000 to 100000 nM. In the case of `O=C(O)c1cnc(NS(=O)(=O)c2cnc(-c3ccc(F)cc3)s2)cn1` [Example 90], the IC50 is 1000 to 100000 nM.

As to `Cn1nc(C(=O)O)cc1NS(=O)(=O)c1cnc(-c2ccc(F)cc2)s1` [Example 91], the half-inhibitory concentration (IC50) is > 100000 nM. `O=C(O)c1cc(NS(=O)(=O)c2cnc(-c3ccc(F)cc3)s2)n(-c2ccccc2)n1` [Example 92]: the IC50 was in the range of 1000 to 100000 nM. As for `O=C(O)c1ccc2nc(NS(=O)(=O)c3cnc(-c4ccc(F)cc4)s3)oc2c1` [Example 93], the half-inhibitory concentration (IC50) lay within 1000 to 100000 nM. For `O=C(O)c1ccc2nc(NS(=O)(=O)c3cnc(-c4ccc(F)cc4)s3)sc2c1` [Example 94] the value was 1000 to 100000 nM. For `COc1cc(C(=O)O)ccc1NS(=O)(=O)c1csc(-c2cccc(F)c2)n1` [Example 95] the value was 100 to 500 nM; for `COc1cc(C(=O)O)ccc1NS(=O)(=O)c1csc(-c2ccccc2F)n1` [Example 96], 100 to 500 nM; for `COc1cc(C(=O)O)ccc1NS(=O)(=O)c1csc(-c2ccc(C)cc2)n1` [Example 97], 100 to 500 nM. Consider `COc1cc(C(=O)O)ccc1NS(=O)(=O)c1csc(-c2ccc(C(F)(F)F)cc2)n1` [Example 98], for which the IC50 lay within 100 to 500 nM. As to `COc1ccc(-c2nc(S(=O)(=O)Nc3ccc(C(=O)O)cc3OC)cs2)cc1` [Example 99], the IC50 is 100 to 500 nM.

Consider `COc1cc(C(=O)O)ccc1NS(=O)(=O)c1csc(-c2ccncc2)n1` [Example 100], for which the IC50 was in the range of 1000 to 100000 nM.

As to `COc1cc(C(=O)O)ccc1NS(=O)(=O)c1csc(-c2ccn(C)n2)n1` [Example 101], the IC50 lay in the range of 1000 to 100000 nM.

On to `COc1cc(C(=O)O)ccc1NS(=O)(=O)c1csc(-c2ccccc2)n1` [Example 102], for which the IC50 was < 100 nM.

Consider `COc1cc(C(=O)O)ccc1S(=O)(=O)Nc1csc(-c2ccccc2)n1` [Example 103], for which the IC50 lay in the range of 500 to 1000 nM. `O=C(O)c1cnc(NS(=O)(=O)c2cnc(-c3ccc(F)cc3)s2)o1` [Example 104]: the IC50 lay within 1000 to 100000 nM. As for `COc1cc(C(=O)O)ccc1N(C)S(=O)(=O)c1cnc(-c2ccc(F)cc2)s1` [Example 105], the figure is 1000 to 100000 nM. As to `O=C(O)c1ncc(NS(=O)(=O)c2cnc(-c3ccc(F)cc3)s2)cn1` [Example 106], the half-maximal inhibitory concentration (IC50) lay within 1000 to 100000 nM. As for `O=C(O)c1ccc(NS(=O)(=O)c2cnc(-c3ccc(F)cc3)s2)cc1O` [Example 107], the figure is 500 to 1000 nM. For `O=S(=O)(Nc1ccc(O)cc1)c1cnc(-c2ccc(F)cc2)s1` [Example 108], the IC50 fell in the range of 1000 to 100000 nM. For `O=S(=O)(Nc1ccc(O)cc1O)c1cnc(-c2ccc(F)cc2)s1` [Example 109], the IC50 lay within 1000 to 100000 nM. For `COc1cc(O)ccc1NS(=O)(=O)c1cnc(-c2ccc(F)cc2)s1` [Example 110] the value was 1000 to 100000 nM; for `O=S(=O)(Nc1ccc(Br)cc1C(F)F)c1cnc(-c2ccc(F)cc2)s1` [Example 111], 1000 to 100000 nM; for `O=C(O)c1ccc(NS(=O)(=O)c2csc(-c3ccc(O)cc3)n2)c(O)c1` [Example 112], 100 to 500 nM. As for `COc1ccc(NS(=O)(=O)c2cnc(-c3ccc(F)cc3)s2)cc1Cl` [Example 113], the figure is 1000 to 100000 nM; as for `O=S(=O)(Nc1ccc(O)c(Cl)c1)c1cnc(-c2ccc(F)cc2)s1` [Example 114], 1000 to 100000 nM; as for `CS(=O)(=O)c1cc(C(=O)O)ccc1NS(=O)(=O)c1cnc(-c2ccc(F)cc2)s1` [Example 115], 1000 to 100000 nM. As for `O=C(O)c1ccc(NS(=O)(=O)c2cnc(-c3ccc(F)cc3)s2)c2c1OCCO2` [Example 116], the IC50 is 1000 to 100000 nM. In the case of `COc1cc(C(=O)O)ccc1NS(=O)(=O)c1csc(-c2ccc(C(=O)O)cc2)n1` [Example 117], the IC50 was in the range of 1000 to 100000 nM. `O=S(=O)(O)c1ccc(NS(=O)(=O)c2cnc(-c3ccc(F)cc3)s2)cc1` [Example 118]: the half-maximal inhibitory concentration (IC50) was > 100000 nM.

Turning to `COc1cc(S(N)(=O)=O)ccc1NS(=O)(=O)c1cnc(-c2ccc(F)cc2)s1` [Example 119], the half-maximal inhibitory concentration (IC50) was in the range of 1000 to 100000 nM.

For `COc1cc(C(N)=O)ccc1NS(=O)(=O)c1cnc(-c2ccc(F)cc2)s1` [Example 120], the IC50 was 1000 to 100000 nM. As for `CNS(=O)(=O)c1cc(OC)c(NS(=O)(=O)c2cnc(-c3ccc(F)cc3)s2)cc1C` [Example 121], the figure is 1000 to 100000 nM; as for `COc1cc(OC(F)F)ccc1NS(=O)(=O)c1cnc(-c2ccc(F)cc2)s1` [Example 122], 1000 to 100000 nM. `COc1cc(C#N)ccc1NS(=O)(=O)c1cnc(-c2ccc(F)cc2)s1` [Example 123]: the IC50 lay within 1000 to 100000 nM. Turning to `COc1cc(C(=O)O)ccc1NS(=O)(=O)c1csc(-c2cccc(C)c2)n1` [Example 124], the IC50 is 500 to 1000 nM. Turning to `COc1cc(C(=O)O)ccc1NS(=O)(=O)c1csc(-c2ccccc2C)n1` [Example 125], the half-maximal inhibitory concentration (IC50) lay in the range of 500 to 1000 nM. As for `COc1cc(C(=O)O)ccc1NS(=O)(=O)c1csc(-c2cccc(C(F)(F)F)c2)n1` [Example 126], the figure is 500 to 1000 nM; as for `COc1cc(C(=O)O)ccc1NS(=O)(=O)c1csc(-c2ccccc2C(F)(F)F)n1` [Example 127], 500 to 1000 nM; as for `COc1cc(C(=O)O)ccc1NS(=O)(=O)c1csc(-c2ccc(O)cc2)n1` [Example 128], 100 to 500 nM.

With `COc1cc(C(=O)O)ccc1NS(=O)(=O)c1csc(-c2cccc(C#N)c2)n1` [Example 129], the IC50 was in the range of 1000 to 100000 nM. For `COc1cc(C(=O)O)ccc1NS(=O)(=O)c1csc(-c2ccc3ccccc3c2)n1` [Example 130] the value was 500 to 1000 nM. For the compound `CCOC(=O)c1cc2c(c(OC)c1)N(S(=O)(=O)c1csc(-c3ccc(F)cc3)n1)CCC2` [Example 131], the concentration for half-maximal inhibition (IC50) was in the range of 1000 to 100000 nM. As to `COc1cc(C(=O)O)cc2c1N(S(=O)(=O)c1cnc(-c3ccc(F)cc3)s1)CCC2` [Example 132], the half-inhibitory concentration (IC50) fell in the range of 1000 to 100000 nM. With `O=C(O)c1ccc2c(c1)CCCCN2S(=O)(=O)c1cnc(-c2ccc(F)cc2)s1` [Example 133], the IC50 fell in the range of 1000 to 100000 nM. For `COc1cc(C(=O)O)ccc1NS(=O)(=O)c1ccc(Oc2ccccc2OC)cc1` [Example 134], the IC50 was in the range of 500 to 1000 nM.

Regarding `COc1cc(-c2nnn[nH]2)ccc1NS(=O)(=O)c1cnc(-c2ccc(F)cc2)s1` [Example 135], the IC50 fell in the range of 1000 to 100000 nM.

For `COc1cc(C(=O)O)ccc1NS(=O)(=O)c1csc2ccccc12` [Example 136], the IC50 fell in the range of 500 to 1000 nM. On to `COc1cc(C(=O)O)ccc1NS(=O)(=O)c1c[nH]c2ccccc12` [Example 137], for which the half-inhibitory concentration (IC50) was in the range of 1000 to 100000 nM.

As for `COc1cc(C(=O)O)ccc1NS(=O)(=O)c1coc2ccccc12` [Example 138], the IC50 was 1000 to 100000 nM. Regarding `COc1cc(C(=O)O)ccc1NS(=O)(=O)c1ccc2occc2c1` [Example 139], the IC50 was 1000 to 100000 nM. In the case of `COc1cccc(-c2nc(S(=O)(=O)Nc3ccc(C(=O)O)cc3OC)cs2)c1` [Example 140], the half-maximal inhibitory concentration (IC50) was 500 to 1000 nM.

Regarding `COc1cc(C(=O)O)ccc1NS(=O)(=O)c1csc(-c2ccccc2OC)n1` [Example 141], the half-maximal inhibitory concentration (IC50) lay within 500 to 1000 nM. As to `COc1cc(C(=O)O)ccc1NS(=O)(=O)c1csc(-c2ccccc2O)n1` [Example 142], the half-inhibitory concentration (IC50) lay within 500 to 1000 nM. For `COc1cc(C(=O)O)ccc1NS(=O)(=O)c1csc(-c2cccnc2)n1` [Example 143] the value was 1000 to 100000 nM. For `COc1cc(C(=O)O)ccc1NS(=O)(=O)c1ccc(-c2ccccc2)cc1` [Example 144] the value was 100 to 500 nM. `COc1cc(C(=O)O)ccc1NS(=O)(=O)c1cccc(-c2ccccc2)c1` [Example 145]: the IC50 was 1000 to 100000 nM.
